The subject of this assay is slow reacting substance of anaphylaxis (SRS-A). Put plainly: Inhibition of SRS-A induced contraction of guinea pig ileum. In kind it is cell-based. As to conditions: Cavia porcellus, 0.25 h; compound concentration 5×10^-6 M; partially purified SRS-A from guinea pig lung at 40 μg/ml; isolated guinea pig ileum; read-out: percent antagonism of SRS-A induced contraction. The method, then: The SRS-A antagonist activity of the compounds of this invention is measured by the ability of the active medicament to inhibit SRS-A induced contraction of guinea pig ileum. In this test system, sections of ileum are resected from guinea pigs and placed in 5 ml. tissue baths containing a modified Tyrode's solution. One end of the tissue is fixed to a glass tissue holder, the other is connected to a force-displacement transducer and the tissue is placed under a tension of 500 mg. Isometric tissue contractions are recorded on a six channel polygraph. Baths are constantly aerated with 95% O2 -5% CO2. After a 20 minute stabilization period a concentration of the appropriate agonist which provides a contraction height of 60-80% of the maximum obtainable to that agonist (as determined from full sequential concentration-response curves in separate experiments) is added to the tissue bath and the response recorded. The procedure is repeated until reproducible responses are obtained. […] Percent inhibition produced by the test compound is calculated by subtracting the mean percentage change in control tissue from the mean percentage change in tissues exposed to the test compound. Additional compounds are then evaluated as long as the tissue remains reproducibly responsive to the agonist. […]

Consider `O=C(NS(=O)(=O)N1CCc2ccc(Cl)c(Cl)c2C1)N1CCc2ccc(Cl)c(Cl)c2C1` [Compound 1, N-(7,8-Dichloro-1,2,3,4-tetrahydroisoquinolin-2yl)Carbonyl-7,8-dichloro-1,2,3,4-tetrahydroisoquinoline-2-sulfonamide], for which the inhibition at 5 µM was determined as 46%.

Values taken from patent US4350698A, “Antiallergic imidosulfamides” (SmithKline Corporation, priority 1981, dated 1982).
